From patent US20260138969A1 (Korea Research Institute of Chemical Technology, priority 2023, published 2026)
Marks after values point to notes of the source that are not given here.

Tests used:
[1] = TG synthesis inhibition in FFA-treated HepG2 cells; format: cell-based, human; details: human, HepG2 cells, read-out: Cell Viability (% of HepG2 control)
[2] = test system: HepG2 cells; experiment: TG synthesis inhibition in FFA-treated HepG2 cells; format: cell-based, human
[3] = test system: SOD1 G93A transgenic ALS mouse model; experiment: SOD1 G93A transgenic ALS mouse model: neurological score; format: in vivo; details: 30 mg/kg PO QD; from the 19th week of age onwards; vs G2
Experimental: (§1) The test drug was administered once daily (QD) via oral administration (PO) in a solution of 5 mL/kg from 8 weeks of age until death. Body weight was measured weekly, and disease score was measured daily from 8 weeks until the death of the animal. Motor behavior tests (grip strength) and neurological score tests (modified Irwin test) were performed at 9, 11, 13, 15, 17, 19, and 21 weeks, respectively. The survival of the mice was monitored daily.

[4] = test system: BV2 cells; experiment: Anti-inflammatory efficacy: LPS-induced TNF-α secretion (ELISA); format: cell-based; details: 0.1, 0.3, 1 μM pretreatment 1 hour, LPS 100 μg/ml 24 hours; FIG. 2
Experimental: BV2 cells (2×10^4 cells per well) were incubated for 24 hours in a 96-well culture plate. Subsequently, the Example compounds were added in 0.1 μM, 0.3 μM, and 1 μM, respectively, for 1 hour, followed by the addition of LPS 100 μg/ml and incubated for 24 hours. After incubation, conditioned medium (CM) was harvested and centrifuged at 2000 rpm. After separating the supernatant of the solution after centrifugation, the TNF-α secreted from the cell culture medium was measured using the corresponding ELISA kit (LABISKOMA, Seoul, Korea).

[5] = Distribution in the mouse brain (plasma and brain AUC); format: in vivo
Experimental: The blood-brain barrier permeability in ICR mice was confirmed by oral administration of 10 mg/kg of test material. Male […] mice were fasted for 15 h prior to administration. The test material was administered at a dose of 10 mg/kg and a volume of 5 mL/kg, and the solvent composition was N-Methyl-2-pyrrolidone (NMP), Polyethylene glycol 400 (PEG 400), and distilled water (D.W) at a volume ratio of 10:40:50(%), respectively. After administration, blood and brain tissue samples were taken by sacrificing mice with carbon dioxide inhalation at each time point corresponding to 1, 4, and 8 hours. Whole blood was collected from the abdominal vena cava, and brain samples were collected after systemic perfusion with saline to remove as much blood as possible.
The distribution ratio in mouse plasma and brain was calculated by calculating the AUC after concentration quantification in each tissue.

[6] = test system: SOD1 G93A transgenic ALS mouse model; experiment: SOD1 G93A transgenic ALS mouse model: disease symptom score (ALSTDI); format: in vivo; details: 30 mg/kg PO QD from 8 weeks of age; vs G2
Experimental: as §1
From 8 weeks of age, the neurological scoring system developed by the ALS Therapy Development Institute (ALSTDI) method was used to evaluate disease symptoms in mice. Both hind legs were scored based on Table 14 below.

[7] = test system: α-Syn transgenic Parkinson's disease mouse model; experiment: α-Syn transgenic Parkinson's disease mouse model: microglial reduction (Iba-1); format: in vivo; details: 9 months of age; Memantine 10 mg/kg (G3), G4 2 mg/kg, G5 10 mg/kg, G7 2 mg/kg PO QD
Experimental: The test drug was administered once daily (QD) via oral administration (PO) with a solution of 5 ml/kg for 5 months from 4 months to 9 months of age. Motor behavior tests (beam test) and neurological scores (modified Irwin test) were performed at 4 months (before administration), 7 months, and 9 months. After the final behavioral test, tissue samples were taken. Weight was measured on the same day once a week from 4 months of age until the end of the study.
At 9 months of age, the measurement period ended, the mice were anesthetized, and then the experiment was terminated by cardiac puncture according to IACUC guidelines. Mice were perfused transcardially with 0.9% saline for tissue staining, followed by 4% paraformaldehyde until the mice were fixed. The brains were isolated and immobilized by soaking in 4% paraformaldehyde at 4° C. for 24 hours, followed by 30% sucrose added to PBS containing 0.02% sodium azide and stored at 4° C. for 3 days. Brain samples embedded in OCT compounds were sectioned to a thickness of 20 μm using Leica CM1950 (Leica Microsystems, Germany). The sections were stored at 4° C. in a preservation solution until they were stained by antibodies. […]
To assess microgliosis of the cortex, Iba-1-stained brain tissue was imaged in experimental example 10.5 using an immunofluorescence microscope (Olympus, BZ21) in Olympus. Each marker was manually counted to quantify Iba1.

[8] = oral 10 mg/kg, samples at 1, 4, 8 hours

Cc1cc(F)c(C(=O)Nc2cccc(-n3nnc4c3CCCC4)n2)cc1-n1cnc(C2CC2)c1 [Example 3, 5-(4-cyclopropyl-1H-imidazole-1-yl)-2-fluoro-4-methyl-N-(6-(4,5,6,7-tetrahydro-1H-benzo[d][1,2,3]triazole-1-yl)pyridine-2-yl)benzamide]
viability at 48 h, 0.3 μM ([1]; FFA 1 mM + 0.3 μM): 99.1%
viability at 48 h, 1 μM ([1]; FFA 1 mM + 1 μM): 93.1%
TG Level (% of HepG2 control) ([2]; FFA 1 mM + 0.3 μM): 117.38 * % of HepG2 control
TG Level (% of HepG2 control) ([2]; FFA 1 mM + 1 μM): 106.59 * % of HepG2 control
neurological scores [3]: significant decrease in neurological scores compared to G2
TNF-α secretion induced by LPS [4]: reduced TNF-α secretion at all concentrations compared to Selonsertib
Kp ([5]; male, brain/plasma, po, 10 mg/kg): 0.021
Aukinf brain [5, 8]: 6.61 ± 1.75 ug*h · g.
Aukinf plasma [5, 8]: 320 ± 74.8 µg·mL·h
disease symptom score [6]: tended to have a lower disease symptom score compared to G2 during the observation period, and decreased significantly at 20 weeks

Cc1cc(F)c(C(=O)Nc2cccc(-n3nnc4c3CCC4)n2)cc1-n1cnc(C2CC2)c1 [Example 2, 5-(4-cyclopropyl-1H-imidazole-1-yl)-N-(6-(5,6-dihydrocyclopenta[d][1,2,3]triazole-1 (4H)-yl)pyridine-2-yl)-2-fluoro-4-methylbenzamide]
number of IBA-1 positive cells in the cerebral cortex [7]: significantly reduced
